According to patent US20250213558A1, “T-TYPE CALCIUM CHANNEL MODULATORS COMPRISING A PIPERAZINE OR 1,4-DIAZEPANE CORE AND METHODS OF USE THEREOF” (Praxis Precision Medicines, Inc., priority 2022, published 2025):
pIC50: −log10 of the molar value. Read-outs that look alike come from different tables or passages of the source.

Molecular target: T1, Human Cav3.1 calcium channel (Homo sapiens, UniProt O43497)
T1 construct: expressed in transfected cells; host or cells: HEK-293 natClytin/TASK1+Cav3.1 cell line
Assay: Human Cav3.1 calcium channel patch clamp assay (SyncroPatch 384PE; single point and IC50, voltage dependent block)
Assay type: cell-based
Settings: for % Inhibition (Single Point Data): patch clamp
Procedure, shortened: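 Automated whole-cell patch clamp at room temperature, cells held at −120 mV; 100 ms step to −20 mV (resting block), then 1600 ms at −65 mV and a second −20 mV step (voltage-dependent block), every 15 s. Peak currents averaged over last 3 sweeps; % inhibition relative to nickel-sensitive current.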

[1] = Testing Conc 1.25, HEK-293 natClytin/TASK1+Cav3.1 cell line
[2] = voltage dependent block (VDB), HEK-293 natClytin/TASK1+Cav3.1 cell line, read-out: Cav3.1 IC50
[3] = Testing Conc 1, HEK-293 natClytin/TASK1+Cav3.1 cell line

T1 sequence (O43497 whole entry): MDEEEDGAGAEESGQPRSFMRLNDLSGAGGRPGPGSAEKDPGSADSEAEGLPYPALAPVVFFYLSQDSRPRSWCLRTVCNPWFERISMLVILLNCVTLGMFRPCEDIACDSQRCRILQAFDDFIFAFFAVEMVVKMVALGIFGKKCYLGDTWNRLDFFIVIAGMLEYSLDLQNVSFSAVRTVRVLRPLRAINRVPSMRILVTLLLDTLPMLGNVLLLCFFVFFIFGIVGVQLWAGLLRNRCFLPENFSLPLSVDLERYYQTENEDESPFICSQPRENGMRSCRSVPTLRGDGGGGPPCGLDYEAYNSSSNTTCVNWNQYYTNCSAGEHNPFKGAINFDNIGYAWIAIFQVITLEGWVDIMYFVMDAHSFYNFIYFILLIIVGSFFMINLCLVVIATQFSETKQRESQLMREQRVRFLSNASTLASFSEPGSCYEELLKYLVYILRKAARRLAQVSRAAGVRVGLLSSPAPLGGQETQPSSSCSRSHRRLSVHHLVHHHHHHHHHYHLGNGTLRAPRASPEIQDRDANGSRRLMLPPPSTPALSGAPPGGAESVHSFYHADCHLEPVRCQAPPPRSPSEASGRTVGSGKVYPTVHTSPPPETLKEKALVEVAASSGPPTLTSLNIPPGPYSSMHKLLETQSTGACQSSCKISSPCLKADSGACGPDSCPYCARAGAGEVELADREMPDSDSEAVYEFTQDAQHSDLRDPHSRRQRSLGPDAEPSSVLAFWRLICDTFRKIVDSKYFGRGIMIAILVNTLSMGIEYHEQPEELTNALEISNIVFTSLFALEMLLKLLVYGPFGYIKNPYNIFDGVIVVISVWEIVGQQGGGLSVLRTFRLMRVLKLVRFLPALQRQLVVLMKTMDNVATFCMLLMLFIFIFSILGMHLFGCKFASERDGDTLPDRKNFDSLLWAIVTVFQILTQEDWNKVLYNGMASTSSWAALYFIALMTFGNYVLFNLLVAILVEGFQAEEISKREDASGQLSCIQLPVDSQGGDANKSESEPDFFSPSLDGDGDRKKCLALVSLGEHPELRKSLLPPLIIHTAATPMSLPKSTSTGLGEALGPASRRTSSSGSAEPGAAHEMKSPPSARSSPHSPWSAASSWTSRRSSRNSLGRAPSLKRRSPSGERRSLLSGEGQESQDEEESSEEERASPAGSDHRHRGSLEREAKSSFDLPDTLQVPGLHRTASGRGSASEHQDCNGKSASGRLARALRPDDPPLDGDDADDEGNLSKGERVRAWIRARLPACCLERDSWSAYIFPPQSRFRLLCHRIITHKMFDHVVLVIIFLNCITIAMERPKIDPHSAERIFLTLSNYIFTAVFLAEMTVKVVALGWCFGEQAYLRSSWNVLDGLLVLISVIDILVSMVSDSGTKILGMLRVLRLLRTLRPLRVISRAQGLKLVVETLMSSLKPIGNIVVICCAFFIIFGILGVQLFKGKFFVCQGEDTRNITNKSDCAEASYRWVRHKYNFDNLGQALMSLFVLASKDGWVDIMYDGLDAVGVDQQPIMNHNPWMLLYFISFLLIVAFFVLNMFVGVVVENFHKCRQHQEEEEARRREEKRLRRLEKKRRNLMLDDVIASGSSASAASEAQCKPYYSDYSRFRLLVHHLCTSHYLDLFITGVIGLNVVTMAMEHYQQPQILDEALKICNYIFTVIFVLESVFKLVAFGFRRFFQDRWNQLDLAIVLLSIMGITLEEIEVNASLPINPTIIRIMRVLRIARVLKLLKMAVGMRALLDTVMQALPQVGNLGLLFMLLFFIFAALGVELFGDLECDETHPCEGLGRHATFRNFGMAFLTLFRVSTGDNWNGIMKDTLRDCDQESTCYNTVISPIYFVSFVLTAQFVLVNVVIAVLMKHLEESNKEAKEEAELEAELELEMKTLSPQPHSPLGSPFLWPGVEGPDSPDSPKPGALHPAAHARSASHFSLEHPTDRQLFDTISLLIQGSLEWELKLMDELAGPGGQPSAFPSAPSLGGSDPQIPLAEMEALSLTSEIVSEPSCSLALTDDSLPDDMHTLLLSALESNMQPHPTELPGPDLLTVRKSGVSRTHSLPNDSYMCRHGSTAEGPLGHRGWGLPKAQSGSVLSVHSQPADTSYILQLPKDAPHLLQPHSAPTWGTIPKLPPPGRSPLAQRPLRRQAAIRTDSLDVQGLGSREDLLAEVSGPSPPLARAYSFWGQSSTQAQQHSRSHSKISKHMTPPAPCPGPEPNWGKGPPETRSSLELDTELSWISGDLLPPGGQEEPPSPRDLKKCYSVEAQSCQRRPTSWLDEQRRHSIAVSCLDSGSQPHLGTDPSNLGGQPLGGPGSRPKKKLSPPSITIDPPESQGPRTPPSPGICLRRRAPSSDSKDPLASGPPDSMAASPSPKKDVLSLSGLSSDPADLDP

SMILES	% Inhibition (Single Point Data) [1] [%]	pIC50 [2]	pIC50	% Inhibition (Single Point Data) [3] [%]
CC(C)(C)NC(=O)CN1CC2CCC1CN2CC(=O)NC12CC3CC(CC(C3)C1)C2 (centres unmarked) [Compound 8]	76.573	6.22		
CC1(C)CC(CN2C3CC2CN(CC(=O)NC24CC5CC(CC(C5)C2)C4)C3)CCO1 (centres unmarked) [Compound 299]	43.196	6.03		
O=C(CN1CC2CC(C1)N2CCNC(=O)C1(C(F)(F)F)CC1)Nc1ccc(F)c(Cl)c1 [Compound 16]	94.311			
CC(C)(C)NC(=O)CN1C2CCC1CN(Cc1nc3cc(F)cc(Cl)c3o1)C2 [Compound 193]	23.525	5.66		
COc1cc(NC(=O)CN2CC3CC(C2)N3CC(=O)NC2(C(F)(F)F)CC2)cc(F)c1F [Compound 352]		6.88		
CC(C)(NC(=O)CN1C2CC1CN(Cc1nc3c(Cl)ccc(F)c3[nH]1)C2)C(F)(F)F [Compound 181]	102.49		7.37	
Fc1cc(Cl)c2nc(CN3CCN(CC(F)(F)C4CCCC4)CC3)[nH]c2c1 [Compound 160]	73.495	6.19		
O=C(CN1CC2CC(C1)N2CCC1CCOCC1)NC12CC3CC(CC(C3)C1)C2 [Compound 292]	11.934	5.32		
CC(C)(C)NC(=O)CN1CCN(CC(=O)NC23CC4CC(CC(C4)C2)C3)C(=O)C1 [Compound 33]				54.403
Cc1ccnc2[nH]c(CN3CC4CCC(C3)N4CC(=O)NC(C)(C)C)nc12 [Compound 187]	46.159	6.00		
CC(C)(NC(=O)CN1C2CC1CN(CC(=O)Nc1ccc(F)c(Cl)c1)C2)C(F)(F)F [Compound 241]	101.68			
CC1(C)CN(C(=O)CN2C3CCC2CN(Cc2nc4c(Cl)cc(F)cc4[nH]2)C3)C1 [Compound 91]	97.882			
Cc1cc(F)cc2[nH]c(CN3CC4CC(C3)N4CCC3CCOCC3)nc12 [Compound 205]	16.681	5.33		
CC(C)(C)NC(=O)CN1C2CCC1CN(Cc1nc3c(Cl)cc(F)cc3[nH]1)C2 [Compound 64]	100.15		> 7.11	
CC1(NC(=O)CN2C3CC2CN(CC(=O)Nc2ccc(F)c(Cl)c2)C3)CC1 [Compound 239]	58.273	6.23		
CC(C)(NC(=O)CN1CCN(CC(=O)Nc2cc(F)cc(OC(F)F)c2)CC1)C(F)(F)F [Compound 53]	57.147	6.00		
Fc1cc(Cl)c2nc(CN3CC4CCC(C3)N4CCN3CCC(F)(F)CC3)[nH]c2c1 [Compound 90]	99.043			
O=C(CN1C[C@@H]2C[C@H]1CN2CC(=O)NC1(C(F)(F)F)CC1)Nc1ccc(F)c(Cl)c1 [Compound 25]	66.125	6.34		
COC12CC3CC(CC(NC(=O)CN4C[C@@H]5C[C@H]4CN5CC(=O)NC(C)(C)C)(C3)C1)C2 [Compound 342]	25.743	5.87		
COc1cccc(CN2CCN(Cc3nc4c(Cl)cc(F)cc4[nH]3)CC2)c1 [Compound 66]	88.018	6.51		

SMILES	% Inhibition (Single Point Data) [1] [%]	pIC50 [2]	pIC50	% Inhibition (Single Point Data) [3] [%]
CC(C)(C)NC(=O)CN1C2CC1CN(C(=O)NCC13CC4CC(CC(C4)C1)C3)C2 [Compound 295]	0.753			
O=C(CN1C[C@H]2C[C@@H]1CN2CC(=O)NC1(C(F)(F)F)CC1)Nc1ccc(F)c(Cl)c1 [Compound 28]	39.491	5.80		
CC1(C)CCC(=O)N1CCN1C2CC1CN(Cc1nc3c(Cl)cc(F)cc3[nH]1)C2 [Compound 150]	66.439	6.19		
O=C(NCCN1C2CC1CN(Cc1nc3c(Cl)cc(F)cc3[nH]1)C2)C1(C(F)(F)F)CC1 [Compound 135]	101.33	6.81		
CC(C)(C)NC(=O)CN1C2CC1CN(C(=O)NC13CC4CC(CC(C4)C1)C3)C2 [Compound 303]	23.993	5.05		
O=C(CN1CC2CC(C1)N2CC(=O)NC1(C(F)(F)F)CC1)Nc1ccc(F)c(C(F)F)c1 [Compound 252]	72.234	6.24		
O=S(=O)(CCN1C2CC1CN(Cc1nc3c(Cl)ccc(F)c3[nH]1)C2)c1ccccc1 [Compound 168]	66.949	6.15		
CC(C)(C)NC(=O)CN1C[C@H]2COC[C@@H](C1)[C@@H]2CNC(=O)c1cc(F)cc(Cl)c1 [Compound 369]		6.30		
Fc1ccc(Cl)c2nc(CN3CCN(CC(F)(F)C4CCCC4)CC3)[nH]c12 [Compound 163]	54.884	6.17		
CC(C)(CCN1C[C@@H]2C[C@H]1CN2CC(=O)NC12CC3CC(CC(C3)C1)C2)C(F)(F)F [Compound 329]	59.633			
CC(C)(C)NC(=O)CN1C2CCC1CN(Cc1nc3c(Cl)cc(F)cc3[nH]1)CC2 (centres unmarked) [Compound 65]	82.104	6.15		
CC1(C)CCN(C(=O)CN2C3CCC2CN(Cc2nc4c(Cl)cc(F)cc4[nH]2)C3)C1 [Compound 93]	93.884	6.55		
O=C(CN1C[C@@H]2C[C@H]1CN2CC1(O)CCC(F)(F)CC1)NC12CC3CC(CC(C3)C1)C2 [Compound 277]	56.486	6.05		
Cc1cc(CNC(=O)CN2CCN(CC(=O)NC(C)(C)C)CC2)nn1-c1ccccc1 [Compound 2]				40.057
CC(C(=O)Nc1ccc(F)c(OC(F)F)c1)N1CC2CC(C1)N2CC(=O)NC(C)(C)C (centres unmarked) [Compound 256]	100.73			
O=C(CN1CCN(CCC2CCOCC2)CC1=O)Nc1cc(F)cc(Cl)c1 [Compound 38]				30.86
COc1cc(NC(=O)CN2C[C@@H]3C[C@H]2CN3CC(=O)NC(C)(C)C)ccc1F [Compound 310]	84.193	6.62		
CC(C)(C)NC(=O)CN1C[C@H]2COC[C@@H](C1)[C@H]2CC(=O)Nc1cc(F)cc(Cl)c1 [Compound 371]		5.71		
CC(C)(C)NC(=O)CN1CCO[C@H](CNC(=O)c2ccc(F)c(OC(F)F)c2)C1 [Compound 367]		5.24		
Fc1cc(Cl)c2nc(CN3CC4CCC(C3)N4CCOC3CCCCC3)[nH]c2c1 [Compound 95]	100.41			
